Measured values as given in ChEMBL document CHEMBL4513101, “Naegleria gruberi Pathogen Box compounds screening” (2021).

What was measured:
Naegleria gruberi [1] = conditions: NEG-M, at 10 µM
Description: (§1) Growth inhibiting activity of Naegleria gruberi in vitro

Naegleria gruberi [2] = experiment: microbe, parasite or virus in culture; format: functional; conditions: NEG-M, CONC 10 uM
Description: as §1

| Molecule | inhibition (Naegleria gruberi [1]) | inhibition at 10 µM (Naegleria gruberi [2]) |
| --- | --- | --- |
| MMV688978 | 60.5% |  |
| O=C(NC1CC1)c1ccc(CSCc2ccccc2Cl)o1 |  | 5.6% (not active) |
| O=C(c1cc2ccccc2o1)N1CCN(Cc2ccc3c(c2)OCO3)CC1 |  | 28.6% (not active) |
| O=C(Nc1nnc(-c2ccc(Cl)s2)o1)c1ccc(Cl)s1 |  | 21.9% (not active) |
| Cc1nnc(NCc2cccc(Cl)c2)c2ccccc12 |  | 38.4% (not active) |
